The record followed here is patent publication US12322837B2, “Electrochemical reduction of halogenated compounds comprising a haloalkane” (Massachusetts Institute of Technology, priority 2021, dated 2025).

Data set [1] in a line: Solubility/miscibility of reactants in DMSO or 0.1 M LiClO4/DMSO. In kind it is physicochemical. The conditions noted are these: for miscibility with 0.1 M LiClO4/DMSO: even at 50° C. The source says: To understand the effect of the chain length of the RF group, the discharge profiles of Ph-NO2-C6 (o) vs. Ph-NO2-C8 (o) and Ph-CN-C6 (p) vs. Ph-CN-C8 (p) were compared. As is shown in FIG. 5, up to 11 e- or 15 e- transfer per molecule (calculated based on capacities) can be obtained during discharge for C6 or C8 containing reactants, respectively. […] For example, Ph-CN-C6 (p) is liquid and miscible with DMSO at RT, but its C8 counterpart is solid at RT and is only soluble at elevated temperatures (e.g., 50° C.).

Data set [2] can be described thus: Ionic conductivity of NO2-Ph-SF5-containing electrolytes. In kind it is physicochemical. The source says:
Theoretical capacities correspond to 8 e^−per molecule. Capacities increased from 292 to 362 mAh·gsub-stack^−1 as concentration increased from 3 M to 4 M, beyond which further gains were negligible. The maximum gravimetric energy of 1085 Wh·kgsub-stack^−1 was obtained at 4.5 M. Capacity and energy decreased with concentrations exceeding 4.5 M due to diminishing supporting solvent (DMSO, ˜16 wt. % of the catholyte at 5 M), which led to significant decline in ionic conductivity from 6.4 to 0.6 mS·cm^−1 from 0.1 M to 5 M (FIG. 24). Additionally, low DMSO content decreases the ability to solubilize LiF, making electrode passivation effects more severe. Capacities remained constant at ˜362 mAh·gsub-stack^−1 from 0.3-1.0 mA·cm^−2 (0.01 C-0.04 C) and decreased moderately thereafter up to 3 mA·cm^−2 (0.12 C), indicating excellent rate capability.

Converted amounts (≈) assume the structure as drawn.

On to `N#Cc1ccc(C=CC(F)(F)C(F)(F)C(F)(F)C(F)(F)C(F)(F)C(F)(F)C(F)(F)C(F)(F)F)cc1` [Ph-CN-C8 (p)], for which the “solubility limit in 0.1 M LiClO4/DMSO” value in data set [1] (50° C.) stood at 800 mM (≈ 438 mg/mL). Moreover, in data set [1] (RT), the “solubility / reachable concentration in 0.1 M LiClO4/DMSO” value was “not soluble”.
For `N#Cc1ccc(C=CC(F)(F)C(F)(F)C(F)(F)C(F)(F)C(F)(F)C(F)(F)F)cc1` [Ph-CN-C6 (p)], the “miscibility with DMSO” value in data set [1] (RT) is on record as “miscible”.
Regarding `O=[N+]([O-])c1ccc(S(F)(F)(F)(F)F)cc1` [NO2-Ph-SF5, 4-Nitrophenylsulfur pentafluoride], the results for the “ionic conductivity of electrolyte” value in data set [2] (0.1 M NO2-Ph-SF5) and in data set [2] (5 M NO2-Ph-SF5) were 6.4 mS·cm^−1 and 0.6 mS·cm^−1, respectively.
Regarding `O=[N+]([O-])c1ccccc1C=CC(F)(F)C(F)(F)C(F)(F)C(F)(F)C(F)(F)C(F)(F)C(F)(F)C(F)(F)F` [Ph-NO2—C8 (o)], the “solubility / reachable concentration in 0.1 M LiClO4/DMSO” value in data set [1] (RT) was found to be 2000 mM (≈ 1130 mg/mL).
Consider `FC(F)(F)c1ccccc1C=CC(F)(F)C(F)(F)C(F)(F)C(F)(F)C(F)(F)C(F)(F)F` [Ph-CF3—C6 (o)], for which the “miscibility with 0.1 M LiClO4/DMSO” value in data set [1] is “negligible miscibility”.
With `FC(F)(F)c1ccc(C=CC(F)(F)C(F)(F)C(F)(F)C(F)(F)C(F)(F)C(F)(F)F)cc1` [Ph-CF3—C6 (p)], the “miscibility with 0.1 M LiClO4/DMSO” value in data set [1] is reported as “negligible miscibility”.
